From ChEMBL document CHEMBL1147725, “Identification and biological characterization of 6-aryl-7-isopropylquinazolinones as novel TRPV1 antagonists that are effective in models of chronic pain” (J Med Chem, 2006) come the findings set out here.

Data set [1] is described as follows: Aqueous solubility at pH 6.8 and 25 degC. It counts as physicochemical. As to conditions: aqueous medium.
Data set [2] deals with Transient receptor potential cation channel subfamily V member 1 (Homo sapiens, UniProt Q8NER1). As to the kind of experiment: Inhibition of low pH activation of human TRPV1. It counts as functional.
Data set [3] in a line: Half life in rat at 3 mg/kg, po. It counts as ADME, organism-based. More on the design: dose 3 mg/kg, route oral. Conditions: Wistar Han, in vivo.

Values after ≈ are worked out from the molar mass of the structure shown.

Transient receptor potential cation channel subfamily V member 1, sequence (Q8NER1 whole entry): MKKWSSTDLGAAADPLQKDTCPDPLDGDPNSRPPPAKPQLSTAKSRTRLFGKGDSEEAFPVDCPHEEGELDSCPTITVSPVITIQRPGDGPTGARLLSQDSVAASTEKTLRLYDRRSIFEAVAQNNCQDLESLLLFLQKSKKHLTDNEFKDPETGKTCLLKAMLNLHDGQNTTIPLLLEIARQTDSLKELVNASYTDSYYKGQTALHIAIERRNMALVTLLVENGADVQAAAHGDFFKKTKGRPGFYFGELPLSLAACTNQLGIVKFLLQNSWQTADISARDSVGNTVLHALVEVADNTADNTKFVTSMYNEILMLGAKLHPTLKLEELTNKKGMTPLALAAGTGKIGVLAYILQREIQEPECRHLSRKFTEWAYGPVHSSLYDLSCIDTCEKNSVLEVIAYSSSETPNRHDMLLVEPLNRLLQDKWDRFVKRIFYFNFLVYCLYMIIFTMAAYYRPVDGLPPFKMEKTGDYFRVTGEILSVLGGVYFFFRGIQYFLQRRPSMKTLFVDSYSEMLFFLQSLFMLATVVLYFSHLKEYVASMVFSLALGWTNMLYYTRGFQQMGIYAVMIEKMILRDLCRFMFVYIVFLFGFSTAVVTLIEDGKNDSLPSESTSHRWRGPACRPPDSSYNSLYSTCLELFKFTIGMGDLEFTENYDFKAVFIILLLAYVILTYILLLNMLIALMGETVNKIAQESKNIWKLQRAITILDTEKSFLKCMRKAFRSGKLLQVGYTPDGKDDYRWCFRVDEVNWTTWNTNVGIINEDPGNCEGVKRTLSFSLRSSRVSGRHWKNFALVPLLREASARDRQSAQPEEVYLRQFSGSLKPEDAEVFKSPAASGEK

In the case of `CC(C)(C)c1nc2[nH]c(=S)[nH]c(=O)c2cc1-c1ccc(Cl)cc1`, the concentration in solution in data set [1] (solubility) was 0.15 µg/mL (≈ 0.434 µM). Further, in data set [2], it took 18 nM to reach half-maximal inhibition (IC50). In data set [3], the half-life (commonly how long it takes for the measured level to halve) is 7.5 h.
